Blank lines part the entries; values can stand above or below the molecule they belong to.
Experiments:
[1] = test system: SKOV3 ovarian cancer tumor; test: Tissue biodistribution of Pt; assay type: in vivo, mouse; details: 48 h post-injection, CDDP 6 mg/kg i.v.
[2] = test system: ES-2 ovarian cancer cells; test: MTS cytotoxicity and combination index, ES-2; assay type: cell-based
[3] = test system: SKOV-3 ovarian cancer xenografts; test: In vivo anticancer efficacy
[4] = Plasma pharmacokinetics of platinum
[5] = test system: mouse models; details: mouse models ref 37, 38; cited from earlier work
[6] = test system: SKOV-3 ovarian cancer cells; test: MTS cytotoxicity and combination index, SKOV-3; assay type: cell-based, human
[7] = test system: Hela cells; test: MTS cytotoxicity and combination index, Hela; assay type: cell-based; details: 72 h
[8] = test system: SKOV-3 tumor xenograft; test: NIRF optical animal imaging; set-up: species or system mouse; details: in vivo NIRF after tail vein injection
[9] = Pt in plasma, two compartment model, i.v.

SMILES: [NH2][Pt]([NH2])([Cl])[Cl] [CDDP, Cisplatin]
Kidney/tumor ratio of Pt concentrations [1]: 4
Liver/tumor ratio of Pt concentrations [1]: 2
IC50, as CDDP concentration ([2]; ES2, 72 h, first figure of x/y cells): 0.92 µg/mL
Medium survival time ([3]; 4 mg/kg CDDP): 15 days
Body weight loss ([3]; 4 mg/kg CDDP i.v. day 0, 4, 8, on day 12): exceeded 20%
WBC counting vs PBS control ([3]; 4 mg/kg CDDP, day 7 after last injection): significantly decreased
Animal death due to severe side effects ([3]; 4 mg/kg CDDP, died on day 12, 13, 15, 16 and 17): all animals
Pt of injected dose remaining in plasma ([4]; 30 min after i.v. injection): 5%
Pt of injected dose remaining in plasma ([4]; 24 h after i.v. injection): less than 1%
CL2 [4, 9]: 9.3217 mL/min/kg
t1/2α [4, 9]: 2.64 min
Clearance rate (Cl) relative to nanotherapeutics, both phases ([4]; mouse, in vivo): 20–25 fold
Maximum tolerated dose (MTD) [5]: ≤ 4 mg/kg
IC50, as CDDP concentration ([6]; SKOV-3, 72 h, first figure of x/y cells): 1.354 µg/mL
IC50, as CDDP concentration ([7]; Hela, first figure of x/y cells): 2.427 µg/mL

SMILES: CC(=O)O[C@H]1C(=O)[C@@]2(C)[C@H]([C@H](OC(=O)c3ccccc3)[C@]3(O)C[C@H](OC(=O)[C@H](O)[C@@H](NC(=O)c4ccccc4)c4ccccc4)C(C)=C1C3(C)C)[C@]1(OC(C)=O)CO[C@@H]1C[C@@H]2O [PTX, paclitaxel]
IC50 ([2]; 72 h, read-out: IC50, as PTX concentration): 0.055 µg/mL
IC50 ([6]; Homo sapiens, SK-OV-3, 72 h, read-out: IC50, as PTX concentration): 0.032 µg/mL
IC50 ([7]; Homo sapiens, HeLa, read-out: IC50, as PTX concentration): 0.02 µg/mL

Tumor fluorescence in vivo [8]: very weak tumor fluorescence
SMILES: CCCCCCCCCCCCCCCCCCN1/C(=C/C=C/C=C/C2=[N+](CCCCCCCCCCCCCCCCCC)c3ccccc3C2(C)C)C(C)(C)c2ccccc21.[O-][Cl+3]([O-])([O-])[O-] [free DiD]

Source: PMC4312198 (Biomaterials, 2014)
